Test results published in patent US20240132464A1, “HETEROCYCLIC COMPOUNDS AS E3 LIGASE INHIBITORS” (Accutar Biotechnology Inc., priority 2022, published 2024).

biological target: T1, GID4 (Uniprot ID: Q81VV7, residues 124-289) (Homo sapiens, UniProt Q8IVV7); experiment: GID4 competitive binding assay (AlphaScreen, GID4/degron peptide PGLW); settings: 24 nM GID4, 48 nM biotinylated degron peptide PGLW, 4° C., read-out: IC50 (Inhibition of GID4/Degron binding by test compounds)
T1 construct: GID4 (Uniprot ID: Q81VV7, residues 124-289)
T1 sequence (Q8IVV7 124-289): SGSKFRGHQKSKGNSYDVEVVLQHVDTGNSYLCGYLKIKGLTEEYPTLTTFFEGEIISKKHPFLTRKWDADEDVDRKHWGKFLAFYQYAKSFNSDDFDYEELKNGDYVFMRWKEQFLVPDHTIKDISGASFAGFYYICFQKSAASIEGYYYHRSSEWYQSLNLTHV
In short: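 His-tagged human GID4 (residues 124-289, 24 nM) pre-incubated 2 h at 4 °C with 48 nM biotinylated PGLW peptide and compound in HEPES pH 7.5 buffer, 2% DMSO (final). AlphaScreen streptavidin donor/Ni-NTA acceptor beads added for 1 h; IC50 from nonlinear fit of % inhibition versus DMSO.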

SMILES | IC50
CC(=O)N1CCN(c2cc(N)nc(N)n2)C[C@H]1c1ccccc1Br (stereo in doubt) [Compound 60, (R/S)-1-(2-(2-bromophenyl)-4-(2,6-diaminopyrimidin-4-yl)piperazin-1-yl)ethan-1-one] | > 5000 nM
CNc1cc(N2CCNC(c3csc4ccccc34)C2)nc(N)n1 (centres unmarked) [Compound 102, 6-(3-(benzo[b]thiophen-3-yl)piperazin-1-yl)-N4-methylpyrimidine-2,4-diamine] | 500 to 5000 nM
Nc1cc(N2CCN(CCO)[C@H](c3ccccc3Br)C2)nc(NC2CC2)n1 (stereo in doubt) [Compound 70, (R/S)-2-(4-(6-amino-2-(cyclopropylamino)pyrimidin-4-yl)-2-(2-bromophenyl)piperazin-1-yl)ethan-1-ol] | 500 to 5000 nM
Nc1nc(N2CCCC(c3ccn[nH]3)C2)c2sccc2n1 (centres unmarked) [Compound 217, 4-(3-(1H-pyrazol-5-yl)piperidin-1-yl)thieno[3,2-d]pyrimidin-2-amine] | > 5000 nM
CC(C)c1cc(N2CCCC(O)(c3ncn4ccccc34)C2)nc(N)n1 (centres unmarked) [Compound 224, 1-(2-amino-6-isopropylpyrimidin-4-yl)-3-(imidazo[1,5-a]pyridin-1-yl)piperidin-3-ol] | > 5000 nM
CC(C)c1cc(N2CCNC(c3cnc4ccccn34)C2)c2cc[nH]c2n1 (racemic) [Compound 371, (R/S)-3-(4-(6-isopropyl-1H-pyrrolo[2,3-b]pyridin-4-yl)piperazin-2-yl)imidazo[1,2-a]pyridine] | < 500 nM
Nc1cc(N2CCCC(c3cnc4ccncn34)C2)nc(N)n1 (centres unmarked) [Compound 258, 6-(3-(imidazo[1,2-c]pyrimidin-3-yl)piperidin-1-yl)pyrimidine-2,4-diamine] | 500 to 5000 nM
CNc1cc(N2CCCC(n3ncc4ccccc43)C2)nc(N)n1 (centres unmarked) [Compound 254, 6-(3-(1H-indazol-1-yl)piperidin-1-yl)-N4-methylpyrimidine-2,4-diamine] | > 5000 nM
Nc1nc(N2CCO[C@@H](c3ccccc3Br)C2)c2[nH]ccc2n1 (racemic) [Compound 47, (S/R)-4-(2-(2-bromophenyl)morpholino)-5H-pyrrolo[3,2-d]pyrimidin-2-amine] | 500 to 5000 nM
CC(C)c1cc(N2CCCC(c3nnc4ccccn34)C2)nc(N)n1 (centres unmarked) [Compound 194, 4-(3-([1,2,4]triazolo[4,3-a]pyridin-3-yl)piperidin-1-yl)-6-isopropylpyrimidin-2-amine] | 500 to 5000 nM
Cc1cc(N2CCCC(c3ccn[nH]3)C2)nc(N)n1 (centres unmarked) [Compound 209, 4-(3-(1H-pyrazol-5-yl)piperidin-1-yl)-6-methylpyrimidin-2-amine] | > 5000 nM
CC(C)c1cc(N2C=C(c3ccccc3Br)CCC2)nc(N)n1 [Compound 227, 4-(5-(2-bromophenyl)-3,4-dihydropyridin-1(2H)-yl)-6-isopropylpyrimidin-2-amine] | 500 to 5000 nM
Nc1nc(C2CCC2)cc(N2CCCC(c3ccn[nH]3)C2)n1 (centres unmarked) [Compound 212, 4-(3-(1H-pyrazol-5-yl)piperidin-1-yl)-6-cyclobutylpyrimidin-2-amine] | > 5000 nM
Nc1cc(N2CCCC(c3cnc4ccccn34)C2)nc(N)n1 (single isomer, unassigned) [Compound 115, (S/R)-6-(3-(imidazo[1,2-a]pyridin-3-yl)piperidin-1-yl)pyrimidine-2,4-diamine] | > 5000 nM
CC(C)c1cc(N2Cc3ccnn3C(c3ccccc3Br)C2)nc(N)n1 (centres unmarked) [Compound 2, 4-(7-(2-bromophenyl)-6,7-dihydropyrazolo[1,5-a]pyrazin-5(4H)-yl)-6-isopropylpyrimidin-2-amine] | 500 to 5000 nM
CC(C)c1cc(N2CCNC(c3cccc(F)c3Br)C2)nc(N)n1 (centres unmarked) [Compound 169, 4-(3-(2-bromo-3-fluorophenyl)piperazin-1-yl)-6-isopropylpyrimidin-2-amine] | < 500 nM
Cc1cc(N2CCCC(Nc3ccc(=O)[nH]c3)C2)nc(N)n1 (centres unmarked) [Compound 202, 5-((1-(2-amino-6-methylpyrimidin-4-yl)piperidin-3-yl)amino)pyridin-2(1H)-one] | > 5000 nM
CN1CCN(c2cc(N)nc(N)n2)C[C@@H]1c1ccccc1Br (racemic) [Compound 144, (S/R)-6-(3-(2-bromophenyl)-4-methylpiperazin-1-yl)pyrimidine-2,4-diamine] | > 5000 nM
CC(C)c1cc(N2CCNC(c3ccccc3Cl)C2)nc(N)n1 (centres unmarked) [Compound 175, 4-(3-(2-chlorophenyl)piperazin-1-yl)-6-isopropylpyrimidin-2-amine] | 500 to 5000 nM
CC(C)c1cc(N2CCNC(c3cnn4ccccc34)C2)nc(N)n1 (centres unmarked) [Compound 22, 4-isopropyl-6-(3-(pyrazolo[1,5-a]pyridin-3-yl)piperazin-1-yl)pyrimidin-2-amine] | < 500 nM
CN1CCN(c2ccc(Br)c(C3CN(c4cc(N)nc(N)n4)CCN3)c2)CC1 (single isomer, unassigned) [Compound 50, R or S 6-(3-(2-bromo-5-(4-methylpiperazin-1-yl)phenyl)piperazin-1-yl)pyrimidine-2,4-diamine] | < 500 nM
Nc1nc(C2CC2)cc(N2CCN[C@@H](c3ccccc3Br)C2)n1 (stereo in doubt) [Compound 133, (S/R)-4-(3-(2-bromophenyl)piperazin-1-yl)-6-cyclopropylpyrimidin-2-amine] | 500 to 5000 nM
CN1CCN(c2cc(NC3CC3)nc(N)n2)CC1c1ccccc1Br (centres unmarked) [Compound 101, 6-(3-(2-bromophenyl)-4-methylpiperazin-1-yl)-N4-cyclopropylpyrimidine-2,4-diamine] | < 500 nM

Second part, the compound after the results:

IC50 | SMILES
< 500 nM | CN(C)CCCNC(=O)c1ccc(-c2cc(O)c3ncccc3c2)nc1 [Compound 294, N-(3-(dimethylamino)propyl)-6-(8-hydroxyquinolin-6-yl)nicotinamide]
> 5000 nM | CN(C)CCNC(=O)c1c[nH]c2ncc(-c3ccc4ccnc(N)c4c3)cc12 [Compound 8, 5-(1-aminoisoquinolin-7-yl)-N-(2-(dimethylamino)ethyl)-1H-pyrrolo[2,3-b]pyridine-3-carboxamide]
< 500 nM | Nc1nccc2ccc(-c3ccc4[nH]nc(C(=O)N5CCC(N)CC5)c4c3)cc12 [Compound 339, (5-(1-aminoisoquinolin-7-yl)-1H-indazol-3-yl)(4-aminopiperidin-1-yl)methanone]
< 500 nM | CC(C)c1cc(N2CCCC(c3cnc4ncccn34)C2)nc(N)n1 (centres unmarked) [Compound 245, 4-(3-(imidazo[1,2-a]pyrimidin-3-yl)piperidin-1-yl)-6-isopropylpyrimidin-2-amine]
500 to 5000 nM | Nc1nccc2ccc(-c3ccc4[nH]cnc4c3)cc12 [Compound 362, 7-(1H-benzo[d]imidazol-5-yl)isoquinolin-1-amine]
< 500 nM | CNc1nc(C(C)C)cc(N2CCCC(c3cnc4ccccn34)C2)n1 (centres unmarked) [Compound 134, 4-(3-(imidazo[1,2-a]pyridin-3-yl)piperidin-1-yl)-6-isopropyl-N-methylpyrimidin-2-amine]
< 500 nM | CN(C)CCCNC(=O)c1cnc(-c2cc(O)c3ncccc3c2)s1 [Compound 274, N-(3-(dimethylamino)propyl)-2-(8-hydroxyquinolin-6-yl)thiazole-5-carboxamide]
< 500 nM | CN(C)[C@H]1C[C@@H](NC(=O)c2ccc(-c3cc(O)c4ncccc4c3)cc2)C1 [Compound 279, N-(cis-3-(dimethylamino)cyclobutyl)-4-(8-hydroxyquinolin-6-yl)benzamide]
500 to 5000 nM | CN(C)CCNC(=O)c1csc2ccc(-c3ccc4ccnc(N)c4c3)cc12 [Compound 355, 5-(1-aminoisoquinolin-7-yl)-N-(2-(dimethylamino)ethyl)benzo[b]thiophene-3-carboxamide]
500 to 5000 nM | CN(C)CCCNC(=O)c1ccc(-c2cc(O)c3nccc(N)c3c2)cc1 [Compound 265, 4-(4-amino-8-hydroxyquinolin-6-yl)-N-(3-(dimethylamino)propyl)benzamide]
< 500 nM | CN(C)CCCNC(=O)c1cc(F)c(-c2cc(O)c3ncccc3c2)cc1Cl [Compound 315, 2-chloro-N-(3-(dimethylamino)propyl)-5-fluoro-4-(8-hydroxyquinolin-6-yl)benzamide]
500 to 5000 nM | CN(C)CCCNC(=O)c1c(F)cc(-c2cc(O)c3ncccc3c2)cc1F [Compound 314, N-(3-(dimethylamino)propyl)-2,6-difluoro-4-(8-hydroxyquinolin-6-yl)benzamide]
< 500 nM | CN(C)CCCNC(=O)c1cc(F)c(-c2cc(O)c3ncccc3c2)cc1F [Compound 316, N-(3-(dimethylamino)propyl)-2,5-difluoro-4-(8-hydroxyquinolin-6-yl)benzamide]
< 500 nM | CN(C)CCCNC(=O)c1ccc(-c2cc(O)c3ncccc3c2)cc1N [Compound 312, 2-amino-N-(3-(dimethylamino)propyl)-4-(8-hydroxyquinolin-6-yl)benzamide]
< 500 nM | CN(C)CCCNC(=O)CN1CC=C(c2cc(O)c3ncccc3c2)CC1 [Compound 307, N-(3-(dimethylamino)propyl)-2-(4-(8-hydroxyquinolin-6-yl)-3,6-dihydropyridin-1(2H)-yl)acetamide]
> 5000 nM | Nc1nccc2ccc(-c3csc(C(=O)N4CCCC4)c3)cc12 [Compound 349, (4-(1-aminoisoquinolin-7-yl)thiophen-2-yl)(pyrrolidin-1-yl)methanone]
500 to 5000 nM | Nc1nccc2ccc(-c3cccc(C(=O)N4CCCC4)c3)cc12 [Compound 353, (3-(1-aminoisoquinolin-7-yl)phenyl)(pyrrolidin-1-yl)methanone]
500 to 5000 nM | CCCNC(=O)c1ccc(-c2cc(O)c3ncccc3c2)cc1 [Compound 302, 4-(8-hydroxyquinolin-6-yl)-N-propylbenzamide]
